Laboratory results as given in patent US20030110524A1, “TRANSGENIC ORGANISMS AND THEIR USES” (priority 1997, published 2003).

Key:
[1] = tested on: thyroid cells derived from TG/TK/neo^r transgenic rats; assay: Survival of thyroid cells from TG/TK/neo^r transgenic rats with drugs; format: cell-based, rat; details: TG/TK/neo^r rat cells, drugs added at day 2, geneticin 400 μg/ml, ACG 10 μg/ml
Method: (§1) Thyroid cultures derived from the thyroid gland of adult CD2/neo^r, TG/TK/neo^r and control animals were produced by routine methods (Freshney, 1987). Twenty-four hours after plating, geneticin (400 μg/ml) was added to cultures originating from both types of transgenic and the control rats, and replaced every three days with fresh medium. When required, cells were subcultured (1:2) to prevent their becoming confluent. Cell counts were made manually in 20 fields chosen randomly, and the values at each time point, after allowing for changes due to subculturing, were aggregated (Table 3). […] Ten days later, cell counts were again made of 20 fields chosen at random. […] The results were as expected in view of the specific and non-specific expression of the positive and negative selection markers, in the TG/TK/neo^r and CD2/neo^r transgenics, respectively.
(§2) Drugs were added at day 2 in culture. Values are related to the number of cells found in control cultures without drug additions at various times after plating, and allow for dilutions resulting from passaging. Figures are the means of three separate determinations, the standard errors all being less than 15% of the mean.

[2] = tested on: thyroid cells derived from CD2/neo^r transgenic rats; assay: Survival of thyroid cells from CD2/neo^r transgenic rats with drugs; format: cell-based; details: CD2/neo^r rat cells, drugs added at day 2, geneticin 400 μg/ml, ACG 10 μg/ml
Method: as §1, §2

[3] = tested on: thyroid cells derived from control rats; assay: Survival of thyroid cells from control rats with drugs; format: cell-based, rat; details: control rat cells, drugs added at day 2, geneticin 400 μg/ml, ACG 10 μg/ml
Method: as §1, §2

[4] = tested on: lung fibroblast cells derived from CD2/neo^r transgenic rats; assay: Survival of lung fibroblast cells from CD2/neo^r transgenic rats with drugs; format: cell-based, rat; details: CD2/neo^r rat cells, drugs added at day 2, geneticin 400 μg/ml, 5FC 100 μg/ml
Method: (§3) Fibroblast cultures derived from lung of adult CD2/neo^r, TG/TK/neo^r and control animals were produced and expanded by routine methods (Freshney (1987), Alan R. Liss, New York). Twenty-four hours after plating, geneticin (400 μg/ml) was added to cultures originating from both types of transgenic rats and from control rats, and replaced every three days with fresh medium. When required, cells were subcultured (1:3) to prevent them becoming confluent, again by basic culture methods (Freshney 1987). Cell counts were made manually in 20 fields chosen randomly and the values at each time point, after allowing for changes due to subculturing, were aggregated. […] In the absence of added geneticin, no change in cell survival from either of the transgenic animals was observed.
(§4) The effects of 5-fluorocytosine (5FC) were also determined. 5-fluorocytosine at a concentration of 100 μg/ml had no effect on fibroblast cells derived from control animals or from the TG/TK/neo^r transgenic. In the cells derived from the CD2/neo^r transgenic animal, however, 94% of the originally-plated cells died, or were non-functional (as determined by their failure to exclude trypan blue) after 10 days culture in the presence of 5FC (Table 2).
(§5) Drugs were added at day 2 in culture. Values are related to the number of cells found in control cultures without drug additions at various times after plating, and allowing for dilutions resulting from passaging. Figures are the means of three separate determinations, the standard errors all being less than 15% of the mean.

[5] = tested on: spinal cord cells derived from the CD2-neo^r transgenic rat; assay: Survival and development of spinal cord cells from the CD2-neo^r transgenic rat under geneticin; format: cell-based; details: geneticin 1 mg/ml; 60 days in vitro
Method: Cultures of spinal cord cells derived from the CD2-neo^r transgenic rat were grown in small flasks, using previously established methods (Foster et al., (1990) Eur. J. Neurosci. 3, 32-39). At the beginning of the experimental period, in the region of 100 yeast spores, and unknown amounts of other common laboratory microbiological contaminants, were introduced into the flask. At the same time geneticin (1 mg/ml) was added. Thereafter, all manipulations of the medium and additions to the flask were conducted outside the sterile environment of the laminar flow cabinet.

[6] = tested on: lung fibroblast cells derived from control rats; assay: Survival of lung fibroblast cells from control rats with drugs; format: cell-based, rat; details: control rat cells, drugs added at day 2, geneticin 400 μg/ml, 5FC 100 μg/ml
Method: as §3, §4, §5

[7] = tested on: lung fibroblast cells derived from TG/TK/neo^r transgenic rats; assay: Survival of lung fibroblast cells from TG/TK/neo^r transgenic rats with drugs; format: cell-based, rat; details: TG/TK/neo^r rat cells, drugs added at day 2, geneticin 400 μg/ml, 5FC 100 μg/ml
Method: as §3, §4, §5

CN[C@@H]1[C@@H](O)[C@@H](O[C@@H]2[C@@H](O)[C@H](O[C@H]3O[C@H]([C@@H](C)O)[C@@H](O)[C@H](O)[C@H]3N)[C@@H](N)C[C@H]2N)OC[C@]1(C)O [geneticin]
Survival of thyroid cells (related to number of cells in control cultures without drug) ([1]; day 1 in culture): 104 | Survival of thyroid cells (related to number of cells in control cultures without drug) ([1]; day 3 in culture): 105 | Survival of thyroid cells (related to number of cells in control cultures without drug) ([1]; day 5 in culture): 98 | Survival of thyroid cells (related to number of cells in control cultures without drug) ([1]; day 7 in culture): 88 | Survival of thyroid cells (related to number of cells in control cultures without drug) ([1]; day 9 in culture): 93 | Survival of thyroid cells (related to number of cells in control cultures without drug) ([1]; day 11 in culture): 98 | Survival of thyroid cells (related to number of cells in control cultures without drug) ([2]; day 1 in culture): 91 | Survival of thyroid cells (related to number of cells in control cultures without drug) ([2]; day 3 in culture): 94 | Survival of thyroid cells (related to number of cells in control cultures without drug) ([2]; day 5 in culture): 91 | Survival of thyroid cells (related to number of cells in control cultures without drug) ([2]; day 7 in culture): 93 | Survival of thyroid cells (related to number of cells in control cultures without drug) ([2]; day 9 in culture): 107 | Survival of thyroid cells (related to number of cells in control cultures without drug) ([2]; day 11 in culture): 105 | Survival of thyroid cells (related to number of cells in control cultures without drug) ([3]; day 1 in culture): 95 | Survival of thyroid cells (related to number of cells in control cultures without drug) ([3]; day 3 in culture): 91 | Survival of thyroid cells (related to number of cells in control cultures without drug) ([3]; day 5 in culture): 85 | Survival of thyroid cells (related to number of cells in control cultures without drug) ([3]; day 7 in culture): 56 | Survival of thyroid cells (related to number of cells in control cultures without drug) ([3]; day 9 in culture): 9 | Survival of thyroid cells (related to number of cells in control cultures without drug) ([3]; day 11 in culture): 4 | Survival of lung fibroblast cells (related to number of cells in control cultures without drug) ([4]; day 1 in culture): 91 | Survival of lung fibroblast cells (related to number of cells in control cultures without drug) ([4]; day 3 in culture): 94 | Survival of lung fibroblast cells (related to number of cells in control cultures without drug) ([4]; day 5 in culture): 91 | Survival of lung fibroblast cells (related to number of cells in control cultures without drug) ([4]; day 7 in culture): 93 | Survival of lung fibroblast cells (related to number of cells in control cultures without drug) ([4]; day 9 in culture): 107 | Survival of lung fibroblast cells (related to number of cells in control cultures without drug) ([4]; day 11 in culture): 105 | Survival and development of the neural cells compared to uninfected control cells grown without geneticin [5]: appeared unimpaired | Survival of lung fibroblast cells (related to number of cells in control cultures without drug) ([6]; day 1 in culture): 99 | Survival of lung fibroblast cells (related to number of cells in control cultures without drug) ([6]; day 3 in culture): 101 | Survival of lung fibroblast cells (related to number of cells in control cultures without drug) ([6]; day 5 in culture): 85 | Survival of lung fibroblast cells (related to number of cells in control cultures without drug) ([6]; day 7 in culture): 23 | Survival of lung fibroblast cells (related to number of cells in control cultures without drug) ([6]; day 9 in culture): 5 | Survival of lung fibroblast cells (related to number of cells in control cultures without drug) ([6]; day 11 in culture): 2 | Survival of lung fibroblast cells (related to number of cells in control cultures without drug) ([7]; day 1 in culture): 97 | Survival of lung fibroblast cells (related to number of cells in control cultures without drug) ([7]; day 3 in culture): 105 | Survival of lung fibroblast cells (related to number of cells in control cultures without drug) ([7]; day 5 in culture): 108 | Survival of lung fibroblast cells (related to number of cells in control cultures without drug) ([7]; day 7 in culture): 101 | Survival of lung fibroblast cells (related to number of cells in control cultures without drug) ([7]; day 9 in culture): 105 | Survival of lung fibroblast cells (related to number of cells in control cultures without drug) ([7]; day 11 in culture): 111
